# How the values were obtained:
# Type in all cases: in vivo, pear
# [1] = test system: Conference Pears; test: Examination of Conference pears for scald; conditions: Example 9, CA 6 months, Italy
# Description: (§1) Pears (Conference, William's/Bartlett, or Packam's) were harvested at maturity for long storage. Number of fruits and replicates were selected according to the size of the chamber in which to apply 1-MCP and according to the statistical design. Airtight containers in the range of 1 cubic meter were used for the application of both 1-MCP and ethylene. 1-MCP was released from SmartFresh™ powder that contained 0.14% 1-MCP by weight (obtained from AgroFresh, Inc.). The amount of that SmartFresh™ powder was chosen to yield the target atmospheric concentration of 1-MCP in the chosen container. For example, the 1-MCP released from 1000 mg of that SmartFresh™ powder in 1 cubic meter yielded 1-MCP concentration in the atmosphere of 625 ppb.
# (§2) The chosen amount of SmartFresh™ powder was dissolved in water into a tight flask and shaken until all the powder was dissolved. The flask was then put it into the airtight container and opened, to release the 1-MCP. At the same time of the opening of the 1-MCP flask, ethylene was injected with a syringe into the airtight container. Ethylene was taken from a compressed tank at known concentration: either taken directly or released into a flask. In the latter case the concentration was measured by gas-chromatograph to determine the quantity of volume to inject into the airtight container to get the target concentration.
# (§3) The exposure to atmosphere containing either 1-MCP alone or 1-MCP and ethylene was done on cold pears (already cooled down to non-ambient storage temperature) within a maximum of 7 days from harvest and lasted 24 hours. At the end of the application, the airtight container was vented for 15 minutes and the fruits were put into RA or CA storage. RA storage was at temperature of −1° C. to 1° C. and at relative humidity of 80% to 98%. CA storage had the same temperature and humidity of RA storage, had oxygen level of 1% to 3%, by volume based on the volume of the atmosphere and had carbon dioxide level of 0.5% to 2%, by volume based on the volume of the atmosphere.
# Pears from Italy (the same pears whose firmness is reported herein above in Example 5) were examined for scald after exposure to ambient conditions for the number of days shown below.
# [2] = test system: Conference Pears; test: Firmness of Conference pears by penetrometer after treatment, non-ambient storage and shelf life; set-up: key to SW France F (firmness) / Italy F (firmness) / Average F (firmness): penetrometer force in kgf (8 mm probe); conditions: for ES A F (firmness): farm ES A; for ES B F (firmness): farm ES B; for FR A F (firmness): farm FR A; for FR B F (firmness): farm FR B; for IT F (firmness): farm IT; for FR F (firmness): farm FR; for Italy F (firmness) / SW France F (firmness) / Average F (firmness): ambient 5-8 days; for Average F (firmness): average of SW France and Italy; for firmness: Example 9, CA 6 months; for Italy F (firmness) / firmness: Italy; for Orchard #1 F (firmness) / Orchard #2 F (firmness) / Orchard #3 F (firmness): Example 11, Spain, RA 3 months
# Description: as §1, §2, §3
# In addition, samples of pears (from the same orchards from which pears treated with 1-MCP alone or 1-MCP and ethylene were harvested) were put into an airtight container for 24 hours at the temperature as the treated pears in order to reproduce the same environmental conditions. Then they were stored in the same rooms or in separated rooms in the same conditions of RA and CA as the treated pears. These pears received no exposure to 1-MCP, exogenous ethylene, or any combination thereof, and they are labeled “control” below.
# Length of non-ambient storage at present commercial temperature and storage regime was generally of 2-4 months in RA and 6 months in CA, unless otherwise specified, according to normal commercial practice.
# All pears received the same progression of non-ambient storage followed by exposure to ambient conditions (“shelf life”).
# Pears denoted with a single number (e.g., “300”) received 1-MCP treatment with that concentration, in ppb, of 1-MCP in the atmosphere (e.g., 300 ppb) and were not exposed to exogenous ethylene. Pears denoted with two numbers (e.g. “300+600”) were treated with both that concentration in ppb of 1-MCP and that concentration in ppb of ethylene (e.g., 300 ppb of 1-MCP and 600 ppb of ethylene). The firmness of pears was tested using commercial penetrometers with test probe of 8 mm diameter. Reported quantity is “firmness” (“F”), the penetrometer force in kgf.
# [3] = test system: Packam's Pears; test: Firmness of Packam's pears by penetrometer after treatment, non-ambient storage and shelf life; conditions: South Africa, ambient 5 days; for 8 weeks F (firmness): RA for 8 weeks; for 12 weeks F (firmness): RA for 12 weeks
# Description: as §1, §2, §3
# In addition, samples of pears (from the same orchards from which pears treated with 1-MCP alone or 1-MCP and ethylene were harvested) were put into an airtight container for 24 hours at the temperature as the treated pears in order to reproduce the same environmental conditions. Then they were stored in the same rooms or in separated rooms in the same conditions of RA and CA as the treated pears. […]
# (§4) Pears denoted with a single number (e.g., “300”) received 1-MCP treatment with that concentration, in ppb, of 1-MCP in the atmosphere (e.g., 300 ppb) and were not exposed to exogenous ethylene. […] Reported quantity is “firmness” (“F”), the penetrometer force in kgf. […]
# [4] = test system: William's Pears; test: Firmness of William's pears by penetrometer after treatment, non-ambient storage and shelf life; conditions: South Africa, RA for 8 weeks, ambient for 5 days
# Description: as §1, §2
# The exposure to atmosphere containing either 1-MCP alone or 1-MCP and ethylene was done on cold pears (already cooled down to non-ambient storage temperature) within a maximum of 7 days from harvest and lasted 24 hours. At the end of the application, the airtight container was vented for 15 minutes and the fruits were put into RA or CA storage. RA storage was at temperature of −1° C. to 1° C. and at relative humidity of 80% to 98%. […]
# as §4
# [5] = test system: Conference Pears; test: Inspection of Conference pears for rot, bruising and internal browning; conditions: for percentage of pears having internal browning (I.B.) / percentage of pears having bruising / percentage of pears having rot: Example 7, RA 4 months; for percent disordered fruit: I.B. / percent disordered fruit: rot: Example 8, CA 6 months, ambient 13 days
# Description: as §1, §2, §3
# After RA storage, pears were exposed to ambient for the number of days shown below and then inspected for rot, bruising, and internal browning (“I.B.”). Results shown are the percentage of pears having the disorder.
# Pears from SW France were examined as in Example 7, and the percent disordered fruit was as follows: […]
# [6] = test system: Conference Pears; test: Color rating of Conference pears; conditions: ambient 5-8 days; for Italy color / SW France color: scale of 0 (green) to 5 (yellow); for Average color: average of SW France and Italy, scale 0 (green) to 5 (yellow)
# Description: as §1, §2, §3
# Pears were tested for firmness, as described above, and were rated for color on a scale of 0 (green) to 5 (yellow).
# [7] = Example 3, RA 3 months, ambient 5 to 8 days
# [8] = Example 3, RA 3 months, ambient 5 to 8 days, farm NL A
# [9] = Example 3, RA 3 months, ambient 5 to 8 days, farm NL B
# [10] = Example 4, CA 6 months, ambient 5 to 8 days
# [11] = Example 4, CA 6 months, ambient 5 to 8 days, farm NL A
# [12] = Example 4, CA 6 months, ambient 5 to 8 days, farm NL B
# [13] = Example 10, RA 3 months, ambient 5 days
# [14] = Example 10, RA 3 months, ambient 5 days, NL A
# [15] = Example 10, RA 3 months, ambient 5 days, NL B
smiles,measurement,setting,value
"CC1=CC1 [300(C), 1-MCP]",percent with scald,[1]; 0 ambient days,0%
same,percent with scald,[1]; 7 ambient days,1%
same,"AV F (firmness), average of the results from the seven farms",[2]; [7],4.6 kgf
same,ES A F (firmness),[2]; [7],2.5 kgf
same,ES B F (firmness),[2]; [7],3.4 kgf
same,FR A F (firmness),[2]; [7],5.3 kgf
same,FR B F (firmness),[2]; [7],5.1 kgf
same,IT F (firmness),[2]; [7],4.8 kgf
same,NL A F (firmness),[2]; [8],5.3 kgf
same,NL B F (firmness),[2]; [9],5.6 kgf
same,"Av F (firmness), average of the results from the six farms",[2]; [10],4.1 kgf
same,ES A F (firmness),[2]; [10],4.2 kgf
same,ES B F (firmness),[2]; [10],3.3 kgf
same,FR F (firmness),[2]; [10],4.7 kgf
same,IT F (firmness),[2]; [10],4.7 kgf
same,NL A F (firmness),[2]; [11],4.4 kgf
same,NL B F (firmness),[2]; [12],3.4 kgf
same,Italy F (firmness),"[2]; Example 5, RA 3 months",4.8
same,SW France F (firmness),"[2]; Example 5, RA 3 months",5.1
same,Italy F (firmness),"[2]; Example 6, CA 6 months",4.7
same,SW France F (firmness),"[2]; Example 6, CA 6 months",4.7
same,Average F (firmness),"[2]; Example 6, CA 6 months",4.7
same,firmness,[2]; 0 ambient days,6.5 kgf
same,firmness,[2]; 7 ambient days,4.7 kgf
same,"Average F (firmness), average of the two orchards",[2]; [13],4.48 kgf
same,NL A F (firmness),[2]; [14],5.59 kgf
same,NL B F (firmness),[2]; [15],3.37 kgf
same,Orchard #1 F (firmness),[2]; 0 days ambient,5.72 kgf
same,Orchard #2 F (firmness),[2]; 0 days ambient,5.92 kgf
same,Orchard #3 F (firmness),[2]; 0 days ambient,5.97 kgf
same,Orchard #1 F (firmness),[2]; 7 days ambient,5.84 kgf
same,Orchard #2 F (firmness),[2]; 7 days ambient,5.53 kgf
same,Orchard #3 F (firmness),[2]; 7 days ambient,5.44 kgf
same,Orchard #1 F (firmness),[2]; 12 days ambient,5.55 kgf
same,Orchard #2 F (firmness),[2]; 12 days ambient,5.68 kgf
same,Orchard #3 F (firmness),[2]; 12 days ambient,5.62 kgf
same,8 weeks F (firmness),[3],6.8 kgf
same,12 weeks F (firmness),[3],5.8 kgf
same,farm 1 F (firmness),[4]; farm 1,6.7 kgf
same,farm 2 F (firmness),[4]; farm 2,5.6 kgf
same,farm 3 F (firmness),[4]; farm 3,7.2 kgf
same,percentage of pears having internal browning (I.B.),"[5]; Loire, France, 11 ambient days",0 percentage
same,percentage of pears having internal browning (I.B.),"[5]; Loire, France, 13 ambient days",0 percentage
same,percentage of pears having internal browning (I.B.),"[5]; Loire, France, 15 ambient days",0 percentage
same,percentage of pears having bruising,"[5]; SW France, 13 ambient days",0 percentage
same,percentage of pears having internal browning (I.B.),"[5]; SW France, 13 ambient days",0 percentage
same,percentage of pears having rot,"[5]; SW France, 13 ambient days",0 percentage
same,percent disordered fruit: I.B.,[5]; SW France,34%
same,percent disordered fruit: rot,[5]; SW France,12%
same,Italy color,"[6]; Example 5, RA 3 months",1.9
same,SW France color,"[6]; Example 5, RA 3 months",2.95
same,Italy color,"[6]; Example 6, CA 6 months",2.4
same,SW France color,"[6]; Example 6, CA 6 months",2.7
same,Average color,"[6]; Example 6, CA 6 months",2.6
"CC1=CC1 [600(C), 1-MCP]",percent with scald,[1]; 0 ambient days,0%
same,percent with scald,[1]; 7 ambient days,1%
same,"AV F (firmness), average of the results from the seven farms",[2]; [7],5.7 kgf
same,ES A F (firmness),[2]; [7],6.3 kgf
same,ES B F (firmness),[2]; [7],6.3 kgf
same,FR A F (firmness),[2]; [7],5.4 kgf
same,FR B F (firmness),[2]; [7],5.2 kgf
same,IT F (firmness),[2]; [7],5.7 kgf
same,NL A F (firmness),[2]; [8],5.3 kgf
same,NL B F (firmness),[2]; [9],5.6 kgf
same,"Av F (firmness), average of the results from the six farms",[2]; [10],5.4 kgf
same,ES A F (firmness),[2]; [10],6.1 kgf
same,ES B F (firmness),[2]; [10],5.6 kgf
same,FR F (firmness),[2]; [10],5.1 kgf
same,IT F (firmness),[2]; [10],4.9 kgf
same,NL A F (firmness),[2]; [11],5.1 kgf
same,NL B F (firmness),[2]; [12],5.7 kgf
same,Italy F (firmness),"[2]; Example 5, RA 3 months",5.7
same,SW France F (firmness),"[2]; Example 5, RA 3 months",5.2
same,Italy F (firmness),"[2]; Example 6, CA 6 months",4.9
same,SW France F (firmness),"[2]; Example 6, CA 6 months",5.1
same,Average F (firmness),"[2]; Example 6, CA 6 months",5.0
same,firmness,[2]; 0 ambient days,6.8 kgf
same,firmness,[2]; 7 ambient days,4.9 kgf
same,"Average F (firmness), average of the two orchards",[2]; [13],5.58 kgf
same,NL A F (firmness),[2]; [14],5.65 kgf
same,NL B F (firmness),[2]; [15],5.52 kgf
same,Orchard #1 F (firmness),[2]; 0 days ambient,5.95 kgf
same,Orchard #2 F (firmness),[2]; 0 days ambient,6.07 kgf
same,Orchard #3 F (firmness),[2]; 0 days ambient,6.46 kgf
same,Orchard #1 F (firmness),[2]; 7 days ambient,5.95 kgf
same,Orchard #2 F (firmness),[2]; 7 days ambient,6.03 kgf
same,Orchard #3 F (firmness),[2]; 7 days ambient,6.30 kgf
same,Orchard #1 F (firmness),[2]; 12 days ambient,5.75 kgf
same,Orchard #2 F (firmness),[2]; 12 days ambient,6.17 kgf
same,Orchard #3 F (firmness),[2]; 12 days ambient,6.58 kgf
same,8 weeks F (firmness),[3]; listed as 600,6.5 kgf
same,12 weeks F (firmness),[3]; listed as 600,6.3 kgf
same,percentage of pears having internal browning (I.B.),"[5]; Loire, France, 11 ambient days",0 percentage
same,percentage of pears having internal browning (I.B.),"[5]; Loire, France, 13 ambient days",0 percentage
same,percentage of pears having internal browning (I.B.),"[5]; Loire, France, 15 ambient days",0 percentage
same,percentage of pears having bruising,"[5]; SW France, 13 ambient days",0 percentage
same,percentage of pears having internal browning (I.B.),"[5]; SW France, 13 ambient days",0 percentage
same,percentage of pears having rot,"[5]; SW France, 13 ambient days",0 percentage
same,percent disordered fruit: I.B.,[5]; SW France,30%
same,percent disordered fruit: rot,[5]; SW France,13%
same,Italy color,"[6]; Example 5, RA 3 months",2.1
same,SW France color,"[6]; Example 5, RA 3 months",2.95
same,Italy color,"[6]; Example 6, CA 6 months",3.4
same,SW France color,"[6]; Example 6, CA 6 months",2.65
same,Average color,"[6]; Example 6, CA 6 months",3.0

# From patent publication US20140234502A1, “Treatment of Produce” (Rohm and Haas Company, priority 2009, published 2014)
